According to patent US12304932B2, “PACAP stabilized peptide” (SENJU PHARMACEUTICAL CO., LTD., priority 2017, dated 2025):
Square brackets hold non-standard residues; d marks the D form. Peptide text beside a SMILES is read from it. * marks the point of attachment. Ala(1H-tetrazol-5-yl) = N[C@@H](Cc1nnn[nH]1)C(=O)O; Nle = CCCC[C@H](N)C(=O)O; Ms = CS(=O)(=O)*

Assay: Peptide stability tests 2 and 3: Tris buffer pH 7.0, stored at 60° C., HPLC conditions 2
Type: physicochemical
Details: Tris buffer pH 7.0, 60° C.; for survival rate after correction for water, 60° C., 1-week storage / survival rate after correction for water, 60° C., 2-week storage: 100 μM peptide; for survival rate after correction for water, 60° C., 2-week storage: 2 weeks
Protocol: (§1) Peptides 1, 2 and 6 to 9 synthesized in Example 2 were weighed and dissolved in Tris buffer (pH 7.0) to prepare 1.0 mM peptide solutions. The solutions were filtered with a Chromatdisk (product of Merck Millipore, Millex-GV, 0.22 μm). Each filtrate was diluted to 100 μM with Tris buffer (pH 7.0) and dispensed into a tube (Protein LoBind Tube by Eppendorf Co.). The prepared peptide solutions were incubated for 1 week or 2 weeks in a 60° C. thermostatic bath to obtain stored samples. A simultaneously prepared sample among the peptide solutions that was not stored was used as a standard sample (initial sample). The standard sample and the stored samples were stored at −30° C. until sample analysis.
Each stored sample was measured under the following HPLC analysis conditions 2, and the survival rate after correction for water for each peptide among the stored samples was calculated in the same manner as Example 3.
Column: XSelect CSH C18 by Waters Co., 5 μm, 4.6×250 mm
Guard column: XSelect CSH C18 by Waters. Co., 5 μm, 4.6×20 mm Guard Cartridge
Detection wavelength: 220 nm
Mobile phase A: 0.1% formic acid in water
Mobile phase B: 0.1% formic acid in acetonitrile
Measuring time: 20 minutes
Measuring sample injection rate: 50 μL
Column temperature: 40° C.
Mobile phase delivery: The mixing ratio of mobile phase A and mobile phase B was varied as shown in Table 5 for linear concentration gradient control.
as §1, with “Peptides 12 to 25, 27” for “Peptides 1, 2”, “and 28” for “and 6 to 9”, “for one” for “for 1”
The survival rate after correction for water for each peptide among the stored samples was calculated in the same manner as Example 4, and the results are shown in Table 7.
as §1, with “29” for “1, 2 and 6”, “34” for “9”, “for” for “for 1 week or”
The survival rate after correction for water for each peptide among the stored samples was calculated in the same manner as Example 4, and the results are shown in Table 7-2.

Row | SMILES | survival rate after correction for water, 60° C., 1-week storage [%] | survival rate after correction for water, 60° C., 2-week storage [%] | stability in aqueous solution, in words
1 | CC[C@H](C)[C@H](NC(=O)CNC(=O)[C@H](CC(=O)O)NC(=O)[C@H](CO)NC(=O)[C@H](Cc1cnc[nH]1)NC(C)=O)C(=O)N[C@@H](Cc1ccccc1)C(=O)N[C@H](C(=O)N[C@@H](CC(=O)O)C(=O)N[C@@H](CO)C(=O)N[C@@H](Cc1ccc(O)cc1)C(=O)N[C@@H](CO)C(=O)N[C@@H](CCCNC(=N)N)C(=O)N[C@@H](Cc1ccc(O)cc1)C(=O)N[C@@H](CCCNC(=N)N)C(=O)N[C@@H](CCCCN)C(=O)N[C@@H](CCC(N)=O)C(=O)N[C@@H](CCSC)C(=O)N[C@@H](C)C(=O)N[C@H](C(=O)N[C@@H](CCCCN)C(=O)N[C@@H](CCCCN)C(=O)N[C@@H](Cc1ccc(O)cc1)C(=O)N[C@@H](CC(C)C)C(=O)N[C@@H](C)C(=O)N[C@@H](C)C(=O)N[C@H](C(=O)N[C@@H](CC(C)C)C(N)=O)C(C)C)C(C)C)[C@@H](C)O [Peptide 2, reference compound] | 28.7 | 17.2 | only equivalent stability
2 | CCCC[C@H](NC(=O)[C@H](CCC(N)=O)NC(=O)[C@H](CCCCN)NC(=O)[C@H](CCCNC(=N)N)NC(=O)[C@H](Cc1ccc(O)cc1)NC(=O)[C@H](CCCNC(=N)N)NC(=O)[C@H](CO)NC(=O)[C@H](Cc1ccc(O)cc1)NC(=O)[C@H](CO)NC(=O)[C@H](Cc1nnn[nH]1)NC(=O)[C@@H](NC(=O)[C@H](Cc1ccccc1)NC(=O)[C@@H](NC(=O)CNC(=O)[C@H](Cc1nnn[nH]1)NC(=O)[C@H](CO)NC(=O)[C@@H](N)Cc1c[nH]cn1)[C@@H](C)CC)[C@@H](C)O)C(=O)N[C@@H](C)C(=O)N[C@H](C(=O)N[C@@H](CCCCN)C(=O)N[C@@H](CCCCN)C(=O)N[C@@H](Cc1ccc(O)cc1)C(=O)N[C@@H](CC(C)C)C(=O)N[C@@H](C)C(=O)N[C@@H](C)C(=O)N[C@H](C(=O)N[C@@H](CC(C)C)C(N)=O)C(C)C)C(C)C [Peptide 6] (H-HS[Ala(1H-tetrazol-5-yl)]GIFT[Ala(1H-tetrazol-5-yl)]SYSRYRKQ[Nle]AVKKYLAAVL-NH2) | 91.3 | 82.4 | drastically increased stability
3 | CC[C@H](C)[C@H](NC(=O)CNC(=O)[C@H](Cc1nnn[nH]1)NC(=O)[C@H](CO)NC(=O)[C@@H](N)Cc1c[nH]cn1)C(=O)N[C@@H](Cc1ccccc1)C(=O)N[C@H](C(=O)N[C@@H](Cc1nnn[nH]1)C(=O)N[C@@H](CO)C(=O)N[C@@H](Cc1ccc(O)cc1)C(=O)N[C@@H](CO)C(=O)N[C@@H](CCCNC(=N)N)C(=O)N[C@@H](Cc1ccc(O)cc1)C(=O)N[C@@H](CCCNC(=N)N)C(=O)N[C@@H](CCCCN)C(=O)N[C@@H](CCC(N)=O)C(=O)N[C@@H](CC(C)C)C(=O)N[C@@H](C)C(=O)N[C@H](C(=O)N[C@@H](CCCCN)C(=O)N[C@@H](CCCCN)C(=O)N[C@@H](Cc1ccc(O)cc1)C(=O)N[C@@H](CC(C)C)C(=O)N[C@@H](C)C(=O)N[C@@H](C)C(=O)N[C@H](C(=O)N[C@@H](CC(C)C)C(N)=O)C(C)C)C(C)C)[C@@H](C)O [Peptide 7] (H-HS[Ala(1H-tetrazol-5-yl)]GIFT[Ala(1H-tetrazol-5-yl)]SYSRYRKQLAVKKYLAAVL-NH2) | 91.7 | 84.8 | drastically increased stability
4 | CCCC[C@H](NC(=O)[C@H](CCC(N)=O)NC(=O)[C@H](CCCCN)NC(=O)[C@H](CCCNC(=N)N)NC(=O)[C@H](Cc1ccc(O)cc1)NC(=O)[C@H](CCCNC(=N)N)NC(=O)[C@H](CO)NC(=O)[C@H](Cc1ccc(O)cc1)NC(=O)[C@H](CO)NC(=O)[C@H](Cc1nnn[nH]1)NC(=O)[C@@H](NC(=O)[C@H](Cc1ccccc1)NC(=O)[C@@H](NC(=O)CNC(=O)[C@H](Cc1nnn[nH]1)NC(=O)[C@H](CO)NC(=O)[C@H](Cc1c[nH]cn1)NC(C)=O)[C@@H](C)CC)[C@@H](C)O)C(=O)N[C@@H](C)C(=O)N[C@H](C(=O)N[C@@H](CCCCN)C(=O)N[C@@H](CCCCN)C(=O)N[C@@H](Cc1ccc(O)cc1)C(=O)N[C@@H](CC(C)C)C(=O)N[C@@H](C)C(=O)N[C@@H](C)C(=O)N[C@H](C(=O)N[C@@H](CC(C)C)C(N)=O)C(C)C)C(C)C [Peptide 8] (Ac-HS[Ala(1H-tetrazol-5-yl)]GIFT[Ala(1H-tetrazol-5-yl)]SYSRYRKQ[Nle]AVKKYLAAVL-NH2) | 98.1 | 92.9 | further increased stability
5 | CC[C@H](C)[C@H](NC(=O)CNC(=O)[C@H](Cc1nnn[nH]1)NC(=O)[C@H](CO)NC(=O)[C@H](Cc1c[nH]cn1)NC(C)=O)C(=O)N[C@@H](Cc1ccccc1)C(=O)N[C@H](C(=O)N[C@@H](Cc1nnn[nH]1)C(=O)N[C@@H](CO)C(=O)N[C@@H](Cc1ccc(O)cc1)C(=O)N[C@@H](CO)C(=O)N[C@@H](CCCNC(=N)N)C(=O)N[C@@H](Cc1ccc(O)cc1)C(=O)N[C@@H](CCCNC(=N)N)C(=O)N[C@@H](CCCCN)C(=O)N[C@@H](CCC(N)=O)C(=O)N[C@@H](CC(C)C)C(=O)N[C@@H](C)C(=O)N[C@H](C(=O)N[C@@H](CCCCN)C(=O)N[C@@H](CCCCN)C(=O)N[C@@H](Cc1ccc(O)cc1)C(=O)N[C@@H](CC(C)C)C(=O)N[C@@H](C)C(=O)N[C@@H](C)C(=O)N[C@H](C(=O)N[C@@H](CC(C)C)C(N)=O)C(C)C)C(C)C)[C@@H](C)O [Peptide 9] (Ac-HS[Ala(1H-tetrazol-5-yl)]GIFT[Ala(1H-tetrazol-5-yl)]SYSRYRKQLAVKKYLAAVL-NH2) | 98.4 | 92.8 | further increased stability
6 | CC[C@H](C)[C@H](NC(=O)CNC(=O)[C@H](Cc1nnn[nH]1)NC(=O)[C@H](CO)NC(=O)[C@H](Cc1c[nH]cn1)NS(C)(=O)=O)C(=O)N[C@@H](Cc1ccccc1)C(=O)N[C@H](C(=O)N[C@@H](Cc1nnn[nH]1)C(=O)N[C@@H](CO)C(=O)N[C@@H](Cc1ccc(O)cc1)C(=O)N[C@@H](CO)C(=O)N[C@@H](CCCNC(=N)N)C(=O)N[C@@H](Cc1ccc(O)cc1)C(=O)N[C@@H](CCCNC(=N)N)C(=O)N[C@@H](CCCCN)C(=O)N[C@@H](CCC(N)=O)C(=O)N[C@@H](CC(C)C)C(=O)N[C@@H](C)C(=O)N[C@H](C(=O)N[C@@H](CCCCN)C(=O)N[C@@H](CCCCN)C(=O)N[C@@H](Cc1ccc(O)cc1)C(=O)N[C@@H](CC(C)C)C(=O)N[C@@H](C)C(=O)N[C@@H](C)C(=O)N[C@H](C(=O)N[C@@H](CC(C)C)C(N)=O)C(C)C)C(C)C)[C@@H](C)O [Peptide 12] (Ms-HS[Ala(1H-tetrazol-5-yl)]GIFT[Ala(1H-tetrazol-5-yl)]SYSRYRKQLAVKKYLAAVL-NH2) | 97.0 | 93.6 | 
